ChEMBL document CHEMBL4308841, “Synthesis, in vitro antiproliferative activity, and kinase inhibitory effects of pyrazole-containing diarylureas and diarylamides” (Eur J Med Chem, 2018)

Columns and labels:
MOLT-4 = assay: Growth inhibition of human MOLT4 cells assessed as cell growth at 0.01 uM incubated for 48 hrs by sulforhodamine B assay relative to control; format: functional; details: MOLT-4, 48 h, read-out: Activity
NCI-H226 = assay: Growth inhibition of human NCI-H226 cells assessed as cell growth at 0.01 uM incubated for 48 hrs by sulforhodamine B assay relative to control; format: functional; details: NCI-H226, 48 h, read-out: Activity
ACHN = assay: Growth inhibition of human ACHN cells assessed as cell growth at 1 uM incubated for 48 hrs by sulforhodamine B assay relative to control; format: functional; details: read-out: Activity
NCI-H23 [1] = assay: Growth inhibition of human NCI-H23 cells incubated for 48 hrs by sulforhodamine B assay; format: functional, cell-based; details: NCI-H23, 48 h
HOP-62 [2] = assay: Growth inhibition of human HOP62 cells incubated for 48 hrs by sulforhodamine B assay; format: functional, cell-based; details: HOP-62, 48 h
HCT-116 = assay: Growth inhibition of human HCT116 cells incubated for 48 hrs by sulforhodamine B assay; format: functional, cell-based; details: HCT-116, 48 h
IGROV-1 = assay: Growth inhibition of human IGROV1 cells assessed as cell growth at 0.1 uM incubated for 48 hrs by sulforhodamine B assay relative to control; format: functional; details: IGROV-1, 48 h, read-out: Activity
OVCAR-4 = assay: Growth inhibition of human OVCAR4 cells assessed as cell growth at 0.01 uM incubated for 48 hrs by sulforhodamine B assay relative to control; format: functional; details: OVCAR-4, 48 h, read-out: Activity
TK-10 = assay: Growth inhibition of human TK10 cells assessed as cell growth at 10 uM incubated for 48 hrs by sulforhodamine B assay relative to control; format: functional; details: TK-10, 48 h, read-out: Activity
UACC-62 = assay: Growth inhibition of human UACC62 cells assessed as cell growth at 1 uM incubated for 48 hrs by sulforhodamine B assay relative to control; format: functional; details: UACC-62, 48 h, read-out: Activity
MDA-MB-435 = assay: Growth inhibition of human MDA-MB-435 cells assessed as cell growth at 0.1 uM incubated for 48 hrs by sulforhodamine B assay relative to control; format: functional; details: MDA-MB-435, 48 h, read-out: Activity
SR = assay: Growth inhibition of human SR cells assessed as cell growth at 1 uM incubated for 48 hrs by sulforhodamine B assay relative to control; format: functional; details: read-out: Activity
UACC-257 = assay: Growth inhibition of human UACC257 cells assessed as cell growth at 100 uM incubated for 48 hrs by sulforhodamine B assay relative to control; format: functional; details: UACC-257, 48 h, read-out: Activity
SNB-19 [3] = assay: Growth inhibition of human SNB19 cells assessed as cell growth at 0.1 uM incubated for 48 hrs by sulforhodamine B assay relative to control; format: functional; details: SNB-19, 48 h, read-out: Activity
MDA-MB-468 = assay: Growth inhibition of human MDA-MB-468 cells assessed as cell growth at 1 uM incubated for 48 hrs by sulforhodamine B assay relative to control; format: functional; details: MDA-MB-468, 48 h, read-out: Activity
RXF 393 = assay: Growth inhibition of human RXF393 cells assessed as cell growth at 100 uM incubated for 48 hrs by sulforhodamine B assay relative to control; format: functional; details: RXF 393, 48 h, read-out: Activity
NCI-H23 [4] = assay: Growth inhibition of human NCI-H23 cells assessed as cell growth at 0.01 uM incubated for 48 hrs by sulforhodamine B assay relative to control; format: functional; details: NCI-H23, 48 h, read-out: Activity
T47D [5] = assay: Growth inhibition of human T47D cells assessed as cell growth at 0.1 uM incubated for 48 hrs by sulforhodamine B assay relative to control; format: functional; details: read-out: Activity
SF-539 = assay: Growth inhibition of human SF539 cells assessed as cell growth at 0.01 uM incubated for 48 hrs by sulforhodamine B assay relative to control; format: functional; details: SF-539, 48 h, read-out: Activity
HOP-62 [6] = assay: Growth inhibition of human HOP62 cells assessed as cell growth at 0.1 uM incubated for 48 hrs by sulforhodamine B assay relative to control; format: functional; details: HOP-62, 48 h, read-out: Activity
NCI-H460 = assay: Growth inhibition of human NCI-H460 cells assessed as cell growth at 100 uM incubated for 48 hrs by sulforhodamine B assay relative to control; format: functional; details: NCI-H460, 48 h, read-out: Activity
SN12C = assay: Growth inhibition of human SN12C cells assessed as cell growth at 0.1 uM incubated for 48 hrs by sulforhodamine B assay relative to control; format: functional; details: read-out: Activity
T47D [7] = assay: Growth inhibition of human T47D cells incubated for 48 hrs by sulforhodamine B assay; format: functional, cell-based
A498 = assay: Growth inhibition of human A498 cells assessed as cell growth at 0.01 uM incubated for 48 hrs by sulforhodamine B assay relative to control; format: functional; details: A498, 48 h, read-out: Activity
M14 = assay: Growth inhibition of human M14 cells assessed as cell growth at 1 uM incubated for 48 hrs by sulforhodamine B assay relative to control; format: functional; details: M14, 48 h, read-out: Activity
NCI-H322M = assay: Growth inhibition of human NCI-H322M cells assessed as cell growth at 1 uM incubated for 48 hrs by sulforhodamine B assay relative to control; format: functional; details: read-out: Activity
KM12 [8] = assay: Growth inhibition of human KM12 cells incubated for 48 hrs by sulforhodamine B assay; format: functional, cell-based; details: KM12, 48 h
HCC 2998 = assay: Growth inhibition of human HCC2998 cells assessed as cell growth at 100 uM incubated for 48 hrs by sulforhodamine B assay relative to control; format: functional; details: HCC 2998, 48 h, read-out: Activity
SNB-19 [9] = assay: Growth inhibition of human SNB19 cells assessed as cell growth at 1 uM incubated for 48 hrs by sulforhodamine B assay relative to control; format: functional; details: SNB-19, 48 h, read-out: Activity
KM12 [10] = assay: Growth inhibition of human KM12 cells assessed as cell growth at 100 uM incubated for 48 hrs by sulforhodamine B assay relative to control; format: functional; details: KM12, 48 h, read-out: Activity
[11] = read-out: LC50 (the source's name)
[12] = read-out: pLC50 (the source's name) (converted)

Structure (SMILES): O=C(Nc1cccc(-n2cc(-c3ccncc3)c(-c3cc(O)cc(Cl)c3)n2)c1)c1cc(C(F)(F)F)cc(C(F)(F)F)c1
- growth at 0.01 µM (MOLT-4): 99%
- growth at 0.01 µM (NCI-H226): 95%
- growth at 1 µM (ACHN): 99%
- GI50 (NCI-H23 [1]; read-out: GI50): 4.18 µM
- LC50 (NCI-H23 [1]; read-out: LC50): > 100 µM
- TGI (NCI-H23 [1]; read-out: TGI): 45.5 µM
- GI50 (NCI-H23 [1]; read-out: pGI50 (converted)): 4.17 µM
- LC50 (NCI-H23 [1]; read-out: pLC50 (converted)): > 100 µM
- TGI (NCI-H23 [1]; read-out: pTGI (converted)): 46.8 µM
- GI50 (HOP-62 [2]; read-out: GI50): 9.52 µM
- CC50 (HOP-62 [2]; [11]): > 100 µM
- TGI (HOP-62 [2]; read-out: TGI): > 100 µM
- GI50 (HOP-62 [2]; read-out: pGI50 (converted)): 9.77 µM
- CC50 (HOP-62 [2]; [12]): > 100 µM
- TGI (HOP-62 [2]; read-out: pTGI (converted)): > 100 µM
- IC50 (HCT-116): 3.23 µM
- GI50 (HCT-116; read-out: GI50): 3.23 µM
- CC50 (HCT-116; [11]): > 100 µM
- TGI (HCT-116; read-out: TGI): > 100 µM
- GI50 (HCT-116; read-out: pGI50 (converted)): 3.24 µM
- CC50 (HCT-116; [12]): > 100 µM
- TGI (HCT-116; read-out: pTGI (converted)): > 100 µM
- growth at 0.1 µM (IGROV-1): 98%
- growth at 0.01 µM (OVCAR-4): 96%
- growth at 10 µM (TK-10): 73%
- growth at 1 µM (UACC-62): 92%
- growth at 0.1 µM (MDA-MB-435): 95%
- growth at 1 µM (SR): 71%
- growth at 100 µM (UACC-257): -10%
- growth at 0.1 µM (SNB-19 [3]): 97%
- growth at 1 µM (MDA-MB-468): 52%
- growth at 100 µM (RXF 393): -50%
- growth at 0.01 µM (NCI-H23 [4]): 94%
- growth at 0.1 µM (T47D [5]): 93%
- growth at 0.01 µM (SF-539): 98%
- growth at 0.1 µM (HOP-62 [6]): 100%
- growth at 100 µM (NCI-H460): 1%
- growth at 0.1 µM (SN12C): 98%
- GI50 (T47D [7]; read-out: GI50): 2.99 µM
- CC50 (T47D [7]; [11]): > 100 µM
- TGI (T47D [7]; read-out: TGI): 94.6 µM
- GI50 (T47D [7]; read-out: pGI50 (converted)): 3.02 µM
- CC50 (T47D [7]; [12]): > 100 µM
- TGI (T47D [7]; read-out: pTGI (converted)): 95.5 µM
- growth at 0.01 µM (A498): 53%
- growth at 1 µM (M14): 85%
- growth at 1 µM (NCI-H322M): 90%
- GI50 (KM12 [8]; read-out: GI50): 1.96 µM
- CC50 (KM12 [8]; [11]): > 100 µM
- GI50 (KM12 [8]; read-out: pGI50 (converted)): 1.95 µM
- CC50 (KM12 [8]; [12]): > 100 µM
- growth at 100 µM (HCC 2998): -34%
- growth at 1 µM (SNB-19 [9]): 105%

Structure (SMILES): O=C(Nc1cccc(-n2cc(-c3ccncc3)c(-c3cc(O)cc(Cl)c3)n2)c1)Nc1ccc(Cl)c(Cl)c1
- growth at 0.01 µM (MOLT-4): 93%
- growth at 0.01 µM (NCI-H226): 94%
- growth at 1 µM (ACHN): 79%
- GI50 (NCI-H23 [1]; read-out: GI50): 2.41 µM
- LC50 (NCI-H23 [1]; read-out: LC50): > 100 µM
- TGI (NCI-H23 [1]; read-out: TGI): 62.9 µM
- GI50 (NCI-H23 [1]; read-out: pGI50 (converted)): 2.4 µM
- LC50 (NCI-H23 [1]; read-out: pLC50 (converted)): > 100 µM
- TGI (NCI-H23 [1]; read-out: pTGI (converted)): 5.01 µM
- GI50 (HOP-62 [2]; read-out: GI50): 2.52 µM
- CC50 (HOP-62 [2]; [11]): > 100 µM
- TGI (HOP-62 [2]; read-out: TGI): 85.1 µM
- GI50 (HOP-62 [2]; read-out: pGI50 (converted)): 2.82 µM
- CC50 (HOP-62 [2]; [12]): > 100 µM
- TGI (HOP-62 [2]; read-out: pTGI (converted)): 8.51 µM
- IC50 (HCT-116): 1.74 µM
- GI50 (HCT-116; read-out: GI50): 1.74 µM
- CC50 (HCT-116; [11]): 9.59 µM
- TGI (HCT-116; read-out: TGI): 41 µM
- GI50 (HCT-116; read-out: pGI50 (converted)): 1.74 µM
- CC50 (HCT-116; [12]): 9.77 µM
- TGI (HCT-116; read-out: pTGI (converted)): 4.07 µM
- growth at 0.1 µM (IGROV-1): 101%
- growth at 0.01 µM (OVCAR-4): 108%
- growth at 1 µM (UACC-62): 83%
- growth at 0.1 µM (MDA-MB-435): 93%
- growth at 1 µM (SR): 62%
- growth at 100 µM (UACC-257): -92%
- growth at 0.1 µM (SNB-19 [3]): 95%
- growth at 1 µM (MDA-MB-468): 59%
- growth at 100 µM (RXF 393): -52%
- growth at 0.01 µM (NCI-H23 [4]): 96%
- growth at 0.1 µM (T47D [5]): 88%
- growth at 0.01 µM (SF-539): 59%
- growth at 100 µM (KM12 [10]): -63%
- growth at 0.1 µM (HOP-62 [6]): 97%
- growth at 100 µM (NCI-H460): -48%
- growth at 0.1 µM (SN12C): 95%
- GI50 (T47D [7]; read-out: GI50): 2.32 µM
- CC50 (T47D [7]; [11]): > 100 µM
- TGI (T47D [7]; read-out: TGI): 61.7 µM
- GI50 (T47D [7]; read-out: pGI50 (converted)): 2.4 µM
- CC50 (T47D [7]; [12]): > 100 µM
- TGI (T47D [7]; read-out: pTGI (converted)): 6.17 µM
- growth at 0.01 µM (A498): 57%
- growth at 1 µM (M14): 72%
- growth at 1 µM (NCI-H322M): 59%
- GI50 (KM12 [8]; read-out: GI50): 1.5 µM
- CC50 (KM12 [8]; [11]): 9 µM
- TGI (KM12 [8]; read-out: TGI): 36.9 µM
- GI50 (KM12 [8]; read-out: pGI50 (converted)): 1.51 µM
- CC50 (KM12 [8]; [12]): 9.12 µM
- TGI (KM12 [8]; read-out: pTGI (converted)): 3.72 µM
- growth at 100 µM (HCC 2998): -55%
- growth at 1 µM (SNB-19 [9]): 90%
